Results: PubChem BioAssay (NCI)
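Exposure lasted 48 hours, with cells grown in 96-well plates and compounds tested at five concentrations. Abbreviation: GI50, concentration required for 50% inhibition of growth. TGI is the concentration that stops growth completely.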

What was measured:
Experiment in all cases: NCI anticancer screen, dose series, 48 h
[1] = system: OVCAR-4 ovarian
[2] = system: COLO 205 colon
[3] = system: SK-MEL-2 melanoma
[4] = system: SN12C renal
[5] = system: MDA-MB-435
[6] = system: EKVX NSCLC
[7] = system: UO-31 renal
[8] = system: HS 578T breast
[9] = system: OVCAR-8 ovarian
[10] = system: SNB-19 CNS

Compound: CN[C@@H](C)C(=O)N[C@H]1CN(S(=O)(=O)c2cccc(S(=O)(=O)N3CC[C@H]4CC[C@@H](C(=O)NC(c5ccccc5)c5ccccc5)N4C(=O)[C@@H](NC(=O)[C@H](C)NC)C3)c2)CC[C@H]2CC[C@@H](C(=O)NC(c3ccccc3)c3ccccc3)N2C1=O
- GI50 [1]: 0.0187 µM
- TGI [1]: 0.128 µM
- GI50 [2]: 15.3 µM
- TGI [2]: 35.2 µM
- GI50 [3]: < 0.0223 µM
- TGI [3]: 10.9 µM
- GI50 [4]: 16.6 µM
- TGI [4]: 36 µM
- GI50 [5]: 1.89 µM
- TGI [5]: 21.6 µM
- GI50 [6]: 25.2 µM
- TGI [6]: > 74 µM
- GI50 [7]: > 73 µM
- TGI [7]: > 100 µM
- GI50 [8]: 18.9 µM
- TGI [8]: 47.8 µM
- GI50 [9]: 5.64 µM
- TGI [9]: 26.8 µM
- GI50 [10]: 21.2 µM
- TGI [10]: 43.6 µM

Compound: COc1ccc(OC)c(NCC(=O)n2nc(/C=C\c3ccc(O)c(OC)c3)cc2/C=C\c2ccc(O)c(OC)c2)c1
- GI50 [1]: 3.43 µM
- TGI [1]: 22.7 µM
- GI50 [2]: 2.11 µM
- TGI [2]: 4.27 µM
- GI50 [3]: 2.3 µM
- TGI [3]: 7.04 µM
- GI50 [4]: 2.52 µM
- TGI [4]: > 100 µM
- GI50 [5]: 1.5 µM
- TGI [5]: 9.6 µM
- GI50 [6]: 3 µM
- TGI [6]: 15.6 µM
- GI50 [7]: 1.8 µM
- TGI [7]: 13.6 µM
- GI50 [8]: 2.31 µM
- TGI [8]: 19.2 µM
- GI50 [9]: 3.02 µM
- TGI [9]: 11.9 µM
- GI50 [10]: 2.62 µM
- TGI [10]: 10.3 µM

Compound: CC(=O)ON1CCCC(P(=O)(OCOC(=O)C(C)(C)C)OCOC(=O)C(C)(C)C)C1=O (centres undefined)
- GI50 [1]: 1.19 µM
- TGI [1]: 13.5 µM
- GI50 [2]: 0.925 µM
- TGI [2]: 5.71 µM
- GI50 [3]: 1.58 µM
- TGI [3]: 6.91 µM
- GI50 [4]: 0.314 µM
- TGI [4]: 2.38 µM
- GI50 [5]: 2.02 µM
- TGI [5]: 15 µM
- GI50 [6]: 0.94 µM
- TGI [6]: 11.1 µM
- GI50 [7]: 0.337 µM
- TGI [7]: 2.68 µM
- GI50 [8]: 0.603 µM
- TGI [8]: 4.4 µM
- GI50 [9]: 0.324 µM
- GI50 [10]: 0.583 µM
- TGI [10]: 4.74 µM

Compound: CC(Br)C(=O)NC(CO)C(=O)O (centres undefined)
- TGI [1]: > 100 µM
- TGI [2]: > 100 µM
- TGI [3]: > 100 µM
- TGI [4]: > 100 µM
- TGI [5]: > 100 µM
- TGI [6]: > 100 µM
- TGI [7]: > 100 µM
- TGI [8]: > 100 µM
- TGI [9]: > 100 µM
- TGI [10]: > 100 µM

Compound: Cc1ccc(O)cc1Nc1ccnc2ccc(S(C)(=O)=O)cc12
- GI50 [1]: > 25 µM
- TGI [1]: > 25 µM
- GI50 [2]: 0.47 µM
- TGI [2]: 2.83 µM
- GI50 [3]: 6.91 µM
- TGI [3]: 24.9 µM
- GI50 [4]: 2.82 µM
- TGI [4]: > 25 µM
- GI50 [5]: 4.92 µM
- TGI [5]: > 25 µM
- GI50 [6]: 11.9 µM
- TGI [6]: > 25 µM
- GI50 [7]: 0.496 µM
- TGI [7]: 4.81 µM
- GI50 [8]: 0.42 µM
- TGI [8]: 4.25 µM
- GI50 [9]: 3.53 µM
- TGI [9]: 16.4 µM
- GI50 [10]: 7.66 µM
- TGI [10]: > 25 µM

Compound: COc1cc2c(cc1Nc1nc(N3CCc4ccccc43)c3cc[nH]c3n1)N(C(=O)CN(C)C)CC2
- GI50 [1]: 2.84 µM
- TGI [1]: 9.04 µM
- GI50 [2]: 5.4 µM
- TGI [2]: 14.3 µM
- GI50 [3]: 6.01 µM
- TGI [3]: 12.3 µM
- GI50 [4]: 3.05 µM
- TGI [4]: 7.47 µM
- GI50 [5]: 2.64 µM
- TGI [5]: 7.91 µM
- GI50 [6]: 5.11 µM
- TGI [6]: 13.9 µM
- GI50 [7]: 5.26 µM
- TGI [7]: 11.6 µM
- GI50 [8]: 4.52 µM
- TGI [8]: 11.4 µM
- GI50 [9]: 1.67 µM
- TGI [9]: 3.84 µM
- GI50 [10]: 4.44 µM
- TGI [10]: 11.5 µM

Compound: Cc1c(C(=N)C(C#N)C#N)c(=N)oc2c1ccc1ccccc12
- GI50 [1]: 19.7 µM
- TGI [1]: > 100 µM
- GI50 [2]: 14.9 µM
- TGI [2]: 29.8 µM
- GI50 [3]: 18 µM
- TGI [3]: 56.4 µM
- GI50 [4]: 22 µM
- TGI [4]: > 100 µM
- GI50 [5]: 22.2 µM
- TGI [5]: > 100 µM
- GI50 [6]: 4.45 µM
- TGI [6]: > 100 µM
- GI50 [7]: 8.23 µM
- TGI [7]: > 100 µM
- GI50 [8]: 10.5 µM
- TGI [8]: 66.2 µM
- GI50 [9]: 23.9 µM
- TGI [9]: > 100 µM
- GI50 [10]: 30.5 µM
- TGI [10]: > 100 µM

Compound: CCN=c1sc2c(n1NC(=O)c1cc3ccc1CCc1ccc(cc1)CC3)C(=O)c1ccccc1C2=O
- GI50 [1]: 0.469 µM
- TGI [1]: 0.906 µM
- GI50 [2]: 1.56 µM
- TGI [2]: 3.71 µM
- GI50 [3]: 0.726 µM
- TGI [3]: 1.56 µM
- GI50 [4]: 0.52 µM
- TGI [4]: 1.06 µM
- GI50 [5]: 0.601 µM
- TGI [5]: 1.09 µM
- GI50 [6]: 0.632 µM
- TGI [6]: 1.66 µM
- GI50 [7]: 0.356 µM
- TGI [7]: 0.96 µM
- GI50 [8]: 0.784 µM
- TGI [8]: 2.28 µM
- GI50 [9]: 0.594 µM
- TGI [9]: 1.35 µM
- GI50 [10]: 0.605 µM
- TGI [10]: 1.33 µM

Compound: O=c1c2ccccc2sc2c(CO)ccc(NCCN3CCCCC3)c12
- TGI [1]: 9.46 µM
- TGI [2]: 4.78 µM
- TGI [3]: 14.5 µM
- TGI [4]: 15.6 µM
- TGI [5]: 7.92 µM
- TGI [6]: 16.6 µM
- TGI [7]: 4.98 µM
- TGI [8]: 15.9 µM
- TGI [9]: 15.5 µM
- TGI [10]: 17.6 µM

Compound: CCN(C)c1nc(N(C)CC)c2nc(N(C)CC)nc(N(C)CC)c2n1
- TGI [1]: > 100 µM
- TGI [2]: > 100 µM
- TGI [3]: > 100 µM
- TGI [4]: > 100 µM
- TGI [5]: > 100 µM
- TGI [6]: > 100 µM
- TGI [7]: > 100 µM
- TGI [8]: > 100 µM
- TGI [9]: > 100 µM
- TGI [10]: > 100 µM

Compound: OC1(c2ccc(Cl)c(C(F)(F)F)c2)CCN(CCCC(c2ccc(F)cc2)c2ccc(F)cc2)CC1
- GI50 [1]: 0.804 µM
- TGI [1]: 1.82 µM
- GI50 [2]: 0.856 µM
- TGI [2]: 1.57 µM
- GI50 [3]: 0.955 µM
- TGI [3]: 1.76 µM
- GI50 [4]: 0.831 µM
- TGI [4]: 1.54 µM
- GI50 [5]: 0.819 µM
- TGI [5]: 1.53 µM
- GI50 [6]: 1.47 µM
- TGI [6]: 6.2 µM
- GI50 [7]: 0.714 µM
- TGI [7]: 2.72 µM
- GI50 [8]: 0.857 µM
- TGI [8]: 1.93 µM
- GI50 [9]: 0.823 µM
- TGI [9]: 1.53 µM
- GI50 [10]: 1.13 µM
- TGI [10]: 3.86 µM

Compound: CCN(CC)Cc1cc(Nc2nc(NC3CCC(N(C)C)CC3)c3ccccc3n2)ccc1OC (centres undefined)
- GI50 [1]: 4.24 µM
- TGI [1]: 18.3 µM
- GI50 [2]: 1.5 µM
- TGI [2]: 2.87 µM
- GI50 [3]: 3.09 µM
- TGI [3]: 7.52 µM
- GI50 [4]: 11.3 µM
- TGI [4]: 24.5 µM
- GI50 [5]: 3.05 µM
- TGI [5]: 11.9 µM
- GI50 [6]: 7.75 µM
- TGI [6]: 25.5 µM
- GI50 [7]: 12.2 µM
- TGI [7]: 27.2 µM
- GI50 [8]: 0.677 µM
- TGI [8]: 14.5 µM
- GI50 [9]: 3.08 µM
- TGI [9]: 13.2 µM
- GI50 [10]: 8.6 µM
- TGI [10]: 22.6 µM

Compound: CNC(=O)c1ncccc1Nc1nc(Nc2cc3c(cc2OC)CCCN3C(=O)CN(C)C)nc2[nH]ccc12
- GI50 [1]: 2.98 µM
- TGI [1]: 6.67 µM
- GI50 [2]: 0.127 µM
- TGI [2]: 1.18 µM
- GI50 [3]: 0.877 µM
- TGI [3]: 3.89 µM
- GI50 [4]: 3.36 µM
- TGI [4]: 7.37 µM
- GI50 [5]: 0.244 µM
- TGI [5]: 1.78 µM
- GI50 [6]: 1.55 µM
- TGI [6]: 6.52 µM
- GI50 [7]: 2.71 µM
- TGI [7]: 6.45 µM
- GI50 [8]: 1.21 µM
- TGI [8]: 5.69 µM
- GI50 [9]: 1.25 µM
- TGI [9]: 5.1 µM
- GI50 [10]: 3.49 µM
- TGI [10]: 11.2 µM
